For experiment [1], the target named is T1, Mitogen-activated protein kinase kinase kinase 5 (Homo sapiens) (UniProt Q99683).
T1 sequence (whole entry): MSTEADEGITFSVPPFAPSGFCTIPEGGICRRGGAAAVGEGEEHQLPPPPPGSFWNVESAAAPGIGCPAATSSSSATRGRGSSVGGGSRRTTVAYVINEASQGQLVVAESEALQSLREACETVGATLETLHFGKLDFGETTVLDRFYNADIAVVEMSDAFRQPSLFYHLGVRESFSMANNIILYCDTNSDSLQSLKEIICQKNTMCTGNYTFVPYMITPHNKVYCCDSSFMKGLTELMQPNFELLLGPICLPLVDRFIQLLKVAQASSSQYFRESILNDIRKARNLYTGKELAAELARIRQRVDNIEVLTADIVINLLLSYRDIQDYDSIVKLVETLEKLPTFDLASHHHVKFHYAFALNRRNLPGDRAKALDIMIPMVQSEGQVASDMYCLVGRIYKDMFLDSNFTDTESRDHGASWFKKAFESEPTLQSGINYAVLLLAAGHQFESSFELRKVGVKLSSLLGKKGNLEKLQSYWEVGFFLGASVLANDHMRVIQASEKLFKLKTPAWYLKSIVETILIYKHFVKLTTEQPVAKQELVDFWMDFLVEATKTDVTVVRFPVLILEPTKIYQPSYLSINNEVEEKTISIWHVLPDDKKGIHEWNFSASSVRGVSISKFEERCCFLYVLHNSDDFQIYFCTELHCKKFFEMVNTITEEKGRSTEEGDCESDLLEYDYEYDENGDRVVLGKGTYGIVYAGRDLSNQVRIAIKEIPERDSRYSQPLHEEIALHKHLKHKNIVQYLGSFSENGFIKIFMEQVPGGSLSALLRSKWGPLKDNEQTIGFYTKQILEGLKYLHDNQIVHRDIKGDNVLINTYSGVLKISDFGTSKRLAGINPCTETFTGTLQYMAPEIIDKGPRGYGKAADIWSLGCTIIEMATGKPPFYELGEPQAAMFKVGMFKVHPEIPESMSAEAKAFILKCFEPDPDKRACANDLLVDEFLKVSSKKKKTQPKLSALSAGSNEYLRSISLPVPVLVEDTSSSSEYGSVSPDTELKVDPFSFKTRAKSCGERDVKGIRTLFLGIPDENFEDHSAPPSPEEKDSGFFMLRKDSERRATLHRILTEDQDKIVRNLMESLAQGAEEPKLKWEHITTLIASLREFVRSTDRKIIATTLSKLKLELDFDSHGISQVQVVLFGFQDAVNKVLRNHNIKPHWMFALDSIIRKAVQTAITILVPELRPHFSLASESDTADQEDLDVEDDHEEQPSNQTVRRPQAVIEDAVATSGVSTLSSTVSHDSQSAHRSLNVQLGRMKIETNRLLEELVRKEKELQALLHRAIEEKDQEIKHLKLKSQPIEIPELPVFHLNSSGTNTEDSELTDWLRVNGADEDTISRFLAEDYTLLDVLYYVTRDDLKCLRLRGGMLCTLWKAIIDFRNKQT
Briefly: Selectivity interaction (Kinase panel (DSF assay)) EUB0001489b MAP3K5. (In DSF a fluorescence change marks the thermal transition of the protein.)

In experiment [2] the target is High affinity nerve growth factor receptor (Homo sapiens, UniProt P04629). To be noted: at 10 µM.
High affinity nerve growth factor receptor, sequence (P04629 33-796 limits assumed): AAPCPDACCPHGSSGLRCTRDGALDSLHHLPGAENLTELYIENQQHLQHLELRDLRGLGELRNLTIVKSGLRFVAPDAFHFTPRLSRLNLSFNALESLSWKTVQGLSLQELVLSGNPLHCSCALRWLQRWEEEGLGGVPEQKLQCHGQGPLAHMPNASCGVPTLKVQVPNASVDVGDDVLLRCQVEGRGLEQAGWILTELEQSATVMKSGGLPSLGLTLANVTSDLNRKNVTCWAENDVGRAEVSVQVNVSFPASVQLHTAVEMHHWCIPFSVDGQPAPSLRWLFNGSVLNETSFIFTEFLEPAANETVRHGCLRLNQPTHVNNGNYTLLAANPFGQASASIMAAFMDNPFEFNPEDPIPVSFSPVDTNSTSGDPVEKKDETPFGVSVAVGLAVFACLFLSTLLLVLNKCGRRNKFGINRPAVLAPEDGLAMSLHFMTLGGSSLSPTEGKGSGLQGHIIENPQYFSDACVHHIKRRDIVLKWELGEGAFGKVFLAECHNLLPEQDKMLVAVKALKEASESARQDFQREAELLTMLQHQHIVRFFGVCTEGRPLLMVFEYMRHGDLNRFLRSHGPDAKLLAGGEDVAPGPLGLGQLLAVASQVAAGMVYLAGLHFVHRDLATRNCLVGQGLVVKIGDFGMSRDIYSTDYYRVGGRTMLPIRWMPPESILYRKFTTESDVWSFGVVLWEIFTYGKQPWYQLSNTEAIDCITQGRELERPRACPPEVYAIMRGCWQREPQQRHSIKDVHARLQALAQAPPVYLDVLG
For experiment [3], the target named is T2, Beta-adrenergic receptor kinase 1 (Homo sapiens) (UniProt P25098).
T2 sequence (whole entry): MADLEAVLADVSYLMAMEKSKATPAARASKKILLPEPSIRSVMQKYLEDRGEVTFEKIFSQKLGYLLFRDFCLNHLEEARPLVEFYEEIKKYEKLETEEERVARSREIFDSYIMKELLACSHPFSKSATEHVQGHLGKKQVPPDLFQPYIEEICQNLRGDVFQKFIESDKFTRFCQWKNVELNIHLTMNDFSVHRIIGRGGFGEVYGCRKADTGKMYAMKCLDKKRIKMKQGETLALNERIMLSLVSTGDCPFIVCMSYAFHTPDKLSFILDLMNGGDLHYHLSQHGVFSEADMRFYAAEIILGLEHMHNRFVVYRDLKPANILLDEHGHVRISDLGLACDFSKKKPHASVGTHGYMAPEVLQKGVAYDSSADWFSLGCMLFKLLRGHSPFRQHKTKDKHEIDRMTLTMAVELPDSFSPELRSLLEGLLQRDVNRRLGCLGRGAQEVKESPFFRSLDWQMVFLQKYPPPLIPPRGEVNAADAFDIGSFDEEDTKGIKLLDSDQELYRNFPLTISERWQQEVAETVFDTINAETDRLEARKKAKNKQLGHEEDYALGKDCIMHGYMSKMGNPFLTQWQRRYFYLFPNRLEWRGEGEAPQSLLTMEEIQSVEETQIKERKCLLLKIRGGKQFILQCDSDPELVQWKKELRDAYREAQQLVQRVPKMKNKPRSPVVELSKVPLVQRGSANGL
Briefly: Selectivity interaction (KinomeScan (DiscoverX)) EUB0001049a ADRBK1. To be noted: at 1 µM.

Experiment [4] deals with T3, Tyrosine-protein kinase ITK/TSK (Homo sapiens) (UniProt Q08881).
T3 sequence (whole entry): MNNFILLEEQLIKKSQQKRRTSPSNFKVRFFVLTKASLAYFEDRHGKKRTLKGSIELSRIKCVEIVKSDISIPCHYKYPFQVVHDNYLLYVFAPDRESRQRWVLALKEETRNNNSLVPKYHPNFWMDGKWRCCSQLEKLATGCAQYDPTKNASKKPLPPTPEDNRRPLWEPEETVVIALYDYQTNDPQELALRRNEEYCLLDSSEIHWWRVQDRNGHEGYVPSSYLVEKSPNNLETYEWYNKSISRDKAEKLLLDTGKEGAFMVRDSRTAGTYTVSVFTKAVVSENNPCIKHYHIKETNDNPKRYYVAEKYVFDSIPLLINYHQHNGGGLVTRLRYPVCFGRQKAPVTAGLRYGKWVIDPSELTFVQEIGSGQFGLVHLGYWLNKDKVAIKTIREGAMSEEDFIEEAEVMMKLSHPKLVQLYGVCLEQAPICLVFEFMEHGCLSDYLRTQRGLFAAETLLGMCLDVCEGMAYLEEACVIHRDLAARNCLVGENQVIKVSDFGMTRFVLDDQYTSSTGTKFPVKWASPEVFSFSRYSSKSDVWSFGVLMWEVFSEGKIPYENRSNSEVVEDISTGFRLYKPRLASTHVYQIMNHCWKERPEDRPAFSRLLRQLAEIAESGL
Briefly: Selectivity interaction (Upstate Kinase Profiler service (Millipore)) EUB0000056c ITK. To be noted: at 1 µM.

In experiment [5] the target is Mitogen-activated protein kinase 1 (Homo sapiens, UniProt P28482). Briefly: Selectivity interaction (Kinase panel (33PanQinase(R) Activity Assay)) EUB0000877a MAPK1.
Mitogen-activated protein kinase 1, sequence (P28482 whole entry): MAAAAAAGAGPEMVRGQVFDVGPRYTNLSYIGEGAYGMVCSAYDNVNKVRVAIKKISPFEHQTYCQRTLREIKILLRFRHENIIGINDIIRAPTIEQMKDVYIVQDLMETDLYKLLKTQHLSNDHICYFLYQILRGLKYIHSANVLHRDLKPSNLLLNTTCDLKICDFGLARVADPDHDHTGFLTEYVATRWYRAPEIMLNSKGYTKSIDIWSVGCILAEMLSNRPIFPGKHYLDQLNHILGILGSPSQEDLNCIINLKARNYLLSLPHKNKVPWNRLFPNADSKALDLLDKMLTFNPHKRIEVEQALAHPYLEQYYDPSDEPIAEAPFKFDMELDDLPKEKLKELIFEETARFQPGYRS

Compound `CN1CCN(C(=O)c2ccc3cc2OCCOCCNc2ccn4ncc-3c4n2)CC1` registered a dTM in experiment [1] of 3.2 K.

With `Cc1cc([C@@H](C)Nc2ccccc2C(=O)O)c2nc(N3CCOCC3)cc(=O)n2c1` [AZD-6482], the % of control in experiment [2] came to 88%.

On to `COc1cc(Nc2nc(C)cc(-c3cnn4nc(OC)ccc34)n2)cc(C(F)(F)F)c1`, for which the % of control in experiment [3] worked out at 100%.

Regarding `Cc1ccc(-c2ccc3c(ccc4sc5c(c43)NC[C@@H](C)NC5=O)n2)cn1`, in experiment [4], the % of inhibition is -1%.

With `CCC(=O)N1CC[C@H](Nc2ncnc3c2CN(c2cnc(OC)c(C(F)(F)F)c2)CC3)C1` [LENIOLISIB], the IC50 (as a rule, the point on the concentration scale where inhibition reaches its midpoint) in experiment [5] is more than 10 µM.

Source of the values: ChEMBL document CHEMBL5465560, “Selectivity Literature for EUbOPEN Chemogenomic Library” (2024).
